# pEC50: −log10 of the molar value.
# Biological target: T1, human GLP-1R (Homo sapiens, UniProt P43220)
# T1 construct: host or cells: HEK293
# Test: GLP-1R cAMP assay (Example B1a, HTRF, 30 min at room temperature)
# Assay type: cell-based
# Settings: cAMP accumulation in HEK293 expressing human GLP-1R, no BETP, 30 min room temperature (Method B1a, compounds ID 1-609), Table 1; read-out: EC50
# Experimental: Assay was carried out with HEK293 expressing human GLP-1R using HTRF assay, developed by Wuxi Apptec. The method is a competitive assay between native cAMP produced by the cells and exogenous cAMP labeled with a proprietary dye d2. The tracer binding is visualized by a mAb anti-cAMP labeled with Cryptate. The signal (i.e. energy transfer) is inversely proportional to the concentration of CAMP in either standard or experimental sample. Compounds were tested in the absence of BETP. Ten microliter of cell suspension in assay buffer (5 mM HEPES, 500 μM IBMX, 0.1% BSA) were added to each well (1,000 cells per well) in a low volume 384-well plate for the assay. Serially diluted compounds were added in 100 nL volume to duplicate wells, by Labcyte Echo. GLP-1 (7-37) was used as positive control. Assay plate was incubated for 30 minutes at room temperature. Stock of cAMP Detection Solution was prepared by mixing 38 parts of cAMP lysis buffer, 1 part of cAMP-D2, 1 part of anti-cAMP cryptate reagent (Cisbio #62AM4PEJ). Ten microliter of the cAMP Detection Solution was added to each well, and the assay plate was incubated for 1 hour at room temperature in the dark. Plates were read on Envision plate reader. The data were analyzed by ScreenUltra in Dotmatics, with % activation expressed using following formula: (Well data−negative control)/(postive control−negative control)*100. Dose response curves were plotted and EC50 values calculated by non-linear regression using 4-parameter fit.
# T1 sequence (P43220 24-463): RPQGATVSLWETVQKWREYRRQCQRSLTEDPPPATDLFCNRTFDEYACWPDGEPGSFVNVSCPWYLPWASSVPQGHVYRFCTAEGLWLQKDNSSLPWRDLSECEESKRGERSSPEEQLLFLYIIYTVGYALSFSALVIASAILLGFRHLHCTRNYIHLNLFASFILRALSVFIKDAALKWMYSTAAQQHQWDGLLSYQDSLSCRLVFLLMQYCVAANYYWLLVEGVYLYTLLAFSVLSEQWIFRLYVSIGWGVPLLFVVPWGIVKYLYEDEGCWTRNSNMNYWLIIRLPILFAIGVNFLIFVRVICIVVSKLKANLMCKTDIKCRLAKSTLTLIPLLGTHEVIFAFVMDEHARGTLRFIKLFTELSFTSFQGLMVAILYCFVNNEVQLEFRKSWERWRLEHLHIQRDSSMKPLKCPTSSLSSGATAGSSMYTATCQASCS
row,SMILES,pEC50
1,"Cc1cc(-n2nc3c(c2-n2cc(-c4ccc5c(cnn5C)c4F)nn2)[C@H](C)N(C(=O)c2cc4cc([C@H]5CCOC(C)(C)C5)ccc4n2[C@@]2(c4noc(=O)[nH]4)C[C@@H]2C)CC3)cc(C)c1F [Compound 1, 3-((1S,2S)-1-(5-((S)-2,2-dimethyltetrahydro-2H-pyran-4-yl)-2-((S)-3-(4-(4-fluoro-1-methyl-1H-indazol-5-yl)-1H-1,2,3-triazol-1-yl)-2-(4-fluoro-3,5-dimethylphenyl)-4-methyl-4,5,6,7-tetrahydro-2H-pyrazolo[4,3-c]pyridine-5-carbonyl)-1H-indol-1-yl)-2-methylcyclopropyl)-1,2,4-oxadiazol-5 (4H)-one]",< 5.00
2,"Cc1cc(-n2nc3c(c2-c2nnc(-c4ccc5c(cnn5C)c4F)o2)[C@H](C)N(C(=O)c2cc4cc([C@H]5CCOC(C)(C)C5)ccc4n2[C@@]2(c4noc(=O)[nH]4)C[C@@H]2C)CC3)cc(C)c1F [Compound 5, 3-((1S,2S)-1-(5-((S)-2,2-dimethyltetrahydro-2H-pyran-4-yl)-2-((S)-3-(5-(4-fluoro-1-methyl-1H-indazol-5-yl)-1,3,4-oxadiazol-2-yl)-2-(4-fluoro-3,5-dimethylphenyl)-4-methyl-4,5,6,7-tetrahydro-2H-pyrazolo[4,3-c]pyridine-5-carbonyl)-1H-indol-1-yl)-2-methylcyclopropyl)-1,2,4-oxadiazol-5 (4H)-one]",< 5.00
3,"Cc1cc(-n2nc3c(c2-c2nc(-c4ccc5c(cnn5C)c4F)cn2C)[C@H](C)N(C(=O)c2cc4cc([C@H]5CCOC(C)(C)C5)ccc4n2[C@@]2(c4noc(=O)[nH]4)C[C@@H]2C)CC3)cc(C)c1F [Compound 21, 3-((1S,2S)-1-(5-((S)-2,2-dimethyltetrahydro-2H-pyran-4-yl)-2-((S)-3-(4-(4-fluoro-1-methyl-1H-indazol-5-yl)-1-methyl-1H-imidazol-2-yl)-2-(4-fluoro-3,5-dimethylphenyl)-4-methyl-4,5,6,7-tetrahydro-2H-pyrazolo[4,3-c]pyridine-5-carbonyl)-1H-indol-1-yl)-2-methylcyclopropyl)-1,2,4-oxadiazol-5 (4H)-one]",6.23
4,"Cc1cc(-n2nc3c(c2-c2nc(-c4ccc5c(cnn5C)c4F)c(C)[nH]2)[C@H](C)N(C(=O)c2cc4cc([C@H]5CCOC(C)(C)C5)ccc4n2[C@@]2(c4noc(=O)[nH]4)C[C@@H]2C)CC3)cc(C)c1F [Compound 24, 3-((1S,2S)-1-(5-((S)-2,2-dimethyltetrahydro-2H-pyran-4-yl)-2-((S)-3-(4-(4-fluoro-1-methyl-1H-indazol-5-yl)-5-methyl-1H-imidazol-2-yl)-2-(4-fluoro-3,5-dimethylphenyl)-4-methyl-4,5,6,7-tetrahydro-2H-pyrazolo[4,3-c]pyridine-5-carbonyl)-1H-indol-1-yl)-2-methylcyclopropyl)-1,2,4-oxadiazol-5 (4H)-one]",< 5.00
5,"Cc1cc(-n2nc3c(c2-c2ncn(-c4ccc5c(cnn5C)c4F)c2C)[C@H](C)N(C(=O)c2cc4cc([C@H]5CCOC(C)(C)C5)ccc4n2C2(c4noc(=O)[nH]4)CC2)CC3)cc(C)c1F [Compound 30, 3-(1-(5-((S)-2,2-dimethyltetrahydro-2H-pyran-4-yl)-2-((4S)-3-(1-(4-fluoro-1-methyl-1H-indazol-5-yl)-5-methyl-1H-imidazol-4-yl)-2-(4-fluoro-3,5-dimethylphenyl)-4-methyl-4,5,6,7-tetrahydro-2H-pyrazolo[4,3-c]pyridine-5-carbonyl)-1H-indol-1-yl)cyclopropyl)-1,2,4-oxadiazol-5 (4H)-one]",< 5.00
6,"Cc1cc(-n2nc3c(c2-n2ccn(-c4ccc5c(cnn5C)c4F)c2=O)[C@H]2CC[C@@H](C3)N2C(=O)c2cc3cc([C@H]4CCOC(C)(C)C4)ccc3n2[C@@]2(c3noc(=O)[nH]3)C[C@@H]2C)cc(C)c1F [Compound 35, 3-((1S,2S)-1-(5-((S)-2,2-dimethyltetrahydro-2H-pyran-4-yl)-2-((4R,7S)-3-(3-(4-fluoro-1-methyl-1H-indazol-5-yl)-2-oxo-2,3-dihydro-1H-imidazol-1-yl)-2-(4-fluoro-3,5-dimethylphenyl)-2,4,5,6,7,8-hexahydro-4,7-epiminocyclohepta [c]pyrazole-9-carbonyl)-1H-indol-1-yl)-2-methylcyclopropyl)-1,2,4-oxadiazol-5 (4H)-one]",≤ 4.00

# The next lines start with the values.
row,pEC50,SMILES
1,6.91,"Cc1cc(-n2nc3c(c2-n2ccn(-c4ccc5c(cnn5C)c4F)c2=O)[C@@H]2CC[C@H](C3)N2C(=O)c2cc3ccc(C4CCOCC4)cc3nc2C2(c3noc(=O)[nH]3)CC2C)cc(C)c1F (single isomer, unassigned) [Compound 237]"
2,6.23,"Cc1cc(-n2nc3c(c2-c2ncn(-c4ccc5c(cnn5C)c4F)c2C)[C@H](C)N(C(=O)c2cc4cc([C@H]5CCOC(C)(C)C5)ccc4n2[C@@]2(c4noc(=O)[nH]4)C[C@@H]2C)CC3)cc(C)c1F [Compound 15, 3-((1S,2S)-1-(5-((S)-2,2-dimethyltetrahydro-2H-pyran-4-yl)-2-((S)-3-(1-(4-fluoro-1-methyl-1H-indazol-5-yl)-5-methyl-1H-imidazol-4-yl)-2-(4-fluoro-3,5-dimethylphenyl)-4-methyl-4,5,6,7-tetrahydro-2H-pyrazolo[4,3-c]pyridine-5-carbonyl)-1H-indol-1-yl)-2-methylcyclopropyl)-1,2,4-oxadiazol-5 (4H)-one]"
3,6.44,"Cc1cc(-n2nc3c(c2N2C(=O)CN(c4ccc5c(cnn5C)c4F)C2=O)[C@H](C)N(C(=O)c2cc4cc([C@H]5CCOC(C)(C)C5)ccc4n2[C@@]2(c4noc(=O)[nH]4)C[C@@H]2C)CC3)cc(C)c1F [Compound 23, 3-((S)-5-(5-((S)-2,2-dimethyltetrahydro-2H-pyran-4-yl)-1-((1S,2S)-2-methyl-1-(5-oxo-4,5-dihydro-1,2,4-oxadiazol-3-yl)cyclopropyl)-1H-indole-2-carbonyl)-2-(4-fluoro-3,5-dimethylphenyl)-4-methyl-4,5,6,7-tetrahydro-2H-pyrazolo[4,3-c]pyridin-3-yl)-1-(4-fluoro-1-methyl-1H-indazol-5-yl) imidazolidine-2,4-dione]"
4,< 5.00,"Cc1cc(-n2nc3c(c2N2CCN(c4ccc5c(cnn5C)c4F)C(=O)C2=O)[C@H](C)N(C(=O)c2cc4cc([C@H]5CCOC(C)(C)C5)ccc4n2[C@@]2(c4noc(=O)[nH]4)C[C@@H]2C)CC3)cc(C)c1F [Compound 28, 1-((S)-5-(5-((S)-2,2-dimethyltetrahydro-2H-pyran-4-yl)-1-((1S,2S)-2-methyl-1-(5-oxo-4,5-dihydro-1,2,4-oxadiazol-3-yl)cyclopropyl)-1H-indole-2-carbonyl)-2-(4-fluoro-3,5-dimethylphenyl)-4-methyl-4,5,6,7-tetrahydro-2H-pyrazolo[4,3-c]pyridin-3-yl)-4-(4-fluoro-1-methyl-1H-indazol-5-yl) piperazine-2,3-dione]"
5,7.03,"Cc1cc(-n2nc3c(c2-n2ccn(-c4ccc5c(cnn5C)c4F)c2=O)C2CCC(C3)N2C(=O)c2cc3cc([C@H]4CCOC(C)(C)C4)ccc3n2[C@@]2(c3noc(=O)[nH]3)C[C@@H]2C)cc(C)c1F (stereo partly drawn) [Compound 32, 3-((1S,2S)-1-(5-((S)-2,2-dimethyltetrahydro-2H-pyran-4-yl)-2-(3-(3-(4-fluoro-1-methyl-1H-indazol-5-yl)-2-oxo-2,3-dihydro-1H-imidazol-1-yl)-2-(4-fluoro-3,5-dimethylphenyl)-2,4,5,6,7,8-hexahydro-4,7-epiminocyclohepta [c]pyrazole-9-carbonyl)-1H-indol-1-yl)-2-methylcyclopropyl)-1,2,4-oxadiazol-5 (4H)-one]"

# Same assay, conditions: text to Table 1d, bridge atoms configured out of the plane or toward the reader
row,SMILES,potency
1,"Cc1cc(-n2nc3c(c2-n2ccn(-c4ccc5c(cnn5C)c4F)c2=O)[C@H]2CC[C@@H](C3)N2C(=O)c2cc3cc([C@H]4CCOC(C)(C)C4)ccc3n2[C@@]2(c3noc(=O)[nH]3)C[C@@H]2C)cc(C)c1F [Compound 35, 3-((1S,2S)-1-(5-((S)-2,2-dimethyltetrahydro-2H-pyran-4-yl)-2-((4R,7S)-3-(3-(4-fluoro-1-methyl-1H-indazol-5-yl)-2-oxo-2,3-dihydro-1H-imidazol-1-yl)-2-(4-fluoro-3,5-dimethylphenyl)-2,4,5,6,7,8-hexahydro-4,7-epiminocyclohepta [c]pyrazole-9-carbonyl)-1H-indol-1-yl)-2-methylcyclopropyl)-1,2,4-oxadiazol-5 (4H)-one]",little or no potency

# Reference: US12617783B2, “Heterocyclic GLP-1R agonists” (BIOMEA FUSION, INC., priority 2024, dated 2026)
